{
  "source": "patent US11738062B2",
  "about": "“Herbal medicine extracts and uses and methods of preparation thereof” (ALPHA OASIS LLC, priority 2018, dated 2023)",
  "tested_on": "collagen-induced arthritis DBA/1J mouse model",
  "assay": "murine model of collagen-induced arthritis, Arthritic Index (AI) scoring",
  "format": "in vivo",
  "conditions": "#4 and #10 100 μL topical patch, ENBREL 3 mg/kg subcutaneous",
  "data": [
    {"substance": "ENBREL®", "values": [
      {"measurement": "rate of disease progression (overall arthritis severity, FIG. 2)", "setting": "14 days of daily treatment", "value": "swiftly arrested"},
      {"measurement": "reduction in arthritis severity score (AI)", "setting": "after 14 days of daily treatment, compared to Group 2 (diseased, vegetable oil)", "value": 71, "unit": "%"}
    ]}
  ]
}
